The results in this text go back to PubChem BioAssay (NCI).

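Test compounds were applied to cells in 96-well plates for 48 hours at 5 doses. TGI is the concentration that stops growth completely.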

Among the test systems are MDA-N; RPMI-8226 leukemia; OVCAR-8 ovarian; UACC-62 melanoma; ACHN renal; SK-OV-3 ovarian; SF-268 CNS; HCT-15 colon; SN12C renal; SF-539 CNS; IGROV1 ovarian; COLO 205 colon; SK-MEL-5 melanoma; NCI-H23 lung; MDA-MB-231 breast; SNB-75 CNS; SNB-19 CNS; MDA-MB-435; U251 CNS.
Experiment in all cases: NCI tumour cell line growth inhibition, 48 h

For `CC(C)(C)OC(=O)N1CCCC1C(=O)NC(c1ccccc1)c1ccccc1` (stereo not drawn), the TGI in the assay with MDA-N, in the assay with RPMI-8226 leukemia, with OVCAR-8 ovarian, in the assay with UACC-62 melanoma, with ACHN renal and with SK-OV-3 ovarian was greater than 100 µM throughout. Moreover, the TGI in the assay with SF-268 CNS, in the assay on HCT-15 colon, in the assay on SN12C renal, in the assay on SF-539 CNS, in the assay with IGROV1 ovarian and in the assay with COLO 205 colon was greater than 100 µM throughout. The TGI with SK-MEL-5 melanoma, in the assay on NCI-H23 lung, in the assay with MDA-MB-231 breast, with SNB-75 CNS, in the assay with SNB-19 CNS and in the assay on MDA-MB-435 was greater than 100 µM each time. The TGI in the assay with U251 CNS is greater than 100 µM.

For `COc1cc(OC)c2c(=O)c3cccc(C)c3n(C)c2c1`, the TGI in the assay on MDA-N was greater than 100 µM; with RPMI-8226 leukemia it was 58.9 µM; in the assay on OVCAR-8 ovarian, greater than 100 µM; in the assay on UACC-62 melanoma, greater than 100 µM; in the assay with ACHN renal, greater than 100 µM; with SK-OV-3 ovarian it was greater than 100 µM. The TGI with SF-268 CNS, with HCT-15 colon, in the assay with SN12C renal, in the assay on SF-539 CNS, in the assay with IGROV1 ovarian and in the assay with COLO 205 colon was greater than 100 µM throughout. For the same molecule, the TGI in the assay with SK-MEL-5 melanoma was 60.6 µM; with NCI-H23 lung it was greater than 100 µM; in the assay with MDA-MB-231 breast it was greater than 100 µM; with SNB-75 CNS, greater than 100 µM; with SNB-19 CNS, greater than 100 µM; with MDA-MB-435, greater than 100 µM. The same molecule came in with a TGI with U251 CNS greater than 100 µM.

For `O=C1Cc2cn[nH]c2-c2ccccc2N1`, the TGI in the assay on MDA-N is greater than 100 µM; in the assay with RPMI-8226 leukemia, 66.1 µM; with OVCAR-8 ovarian, greater than 100 µM; with UACC-62 melanoma, 63.5 µM; in the assay on ACHN renal, greater than 55.7 µM; in the assay on SK-OV-3 ovarian, greater than 100 µM. Moreover, the TGI was greater than 100 µM in the assay on SF-268 CNS; greater than 63.3 µM with HCT-15 colon; greater than 63.9 µM in the assay with SN12C renal; greater than 100 µM in the assay with SF-539 CNS; greater than 100 µM in the assay with IGROV1 ovarian; greater than 64 µM with COLO 205 colon. In addition, the TGI was greater than 59.7 µM in the assay on SK-MEL-5 melanoma; greater than 100 µM in the assay on NCI-H23 lung; greater than 62 µM in the assay with MDA-MB-231 breast; greater than 100 µM in the assay on SNB-75 CNS; greater than 100 µM in the assay on SNB-19 CNS; 59.7 µM with MDA-MB-435. In addition, the TGI in the assay with U251 CNS was greater than 61.6 µM.

For `CC(C)[Si]1(C(C)C)OCC2OC(n3ccc(=O)[nH]c3=O)C([Se]c3ccccc3)C2O[Si](C(C)C)(C(C)C)O1` (stereo not drawn), the TGI with MDA-N was found to be 12.7 µM; in the assay with RPMI-8226 leukemia, 10.9 µM; with OVCAR-8 ovarian, 10.7 µM; with UACC-62 melanoma, 14.8 µM; in the assay on ACHN renal, 6.59 µM; in the assay with SK-OV-3 ovarian, 31.2 µM. Further, the TGI was 10.3 µM with SF-268 CNS; 16.3 µM in the assay with HCT-15 colon; 5.57 µM in the assay with SN12C renal; 20.7 µM in the assay with SF-539 CNS; 9.49 µM in the assay with IGROV1 ovarian; 16.6 µM in the assay with COLO 205 colon. Further, the TGI was 9.59 µM in the assay on SK-MEL-5 melanoma; 13 µM with NCI-H23 lung; 7.79 µM in the assay on MDA-MB-231 breast; 2.42 µM in the assay with SNB-75 CNS; 0.677 µM with SNB-19 CNS; 17.3 µM in the assay on MDA-MB-435. In the assay on U251 CNS, the TGI worked out at 4.87 µM.

Turning to `CCOP(=O)(O)C(Nc1ccc(N=Nc2ccccc2)cc1)c1cccc(C(Nc2ccc(N=Nc3ccccc3)cc2)P(=O)(O)OCC)c1` (stereo not drawn), the TGI is greater than 100 µM with MDA-N; 86.5 µM in the assay on RPMI-8226 leukemia; greater than 100 µM in the assay on OVCAR-8 ovarian; 78.1 µM in the assay with UACC-62 melanoma; greater than 100 µM in the assay on ACHN renal; greater than 100 µM in the assay on SK-OV-3 ovarian. Also, the TGI with SF-268 CNS was greater than 100 µM; in the assay with HCT-15 colon it was greater than 100 µM; with SN12C renal it was greater than 100 µM; in the assay with SF-539 CNS, greater than 100 µM; in the assay on IGROV1 ovarian, greater than 100 µM; with COLO 205 colon, 43.2 µM. Besides, the TGI in the assay with SK-MEL-5 melanoma, in the assay with NCI-H23 lung, in the assay with MDA-MB-231 breast, in the assay with SNB-75 CNS, in the assay with SNB-19 CNS and with MDA-MB-435 was greater than 100 µM throughout. The same molecule gave a TGI in the assay with U251 CNS greater than 100 µM.

Consider `Cc1c(/C=N/NC(=S)N2CCCCC2)c(=O)n(-c2ccccc2)n1C`, for which the TGI in the assay on MDA-N is greater than 100 µM; in the assay with RPMI-8226 leukemia, greater than 100 µM; with OVCAR-8 ovarian, greater than 100 µM; in the assay on UACC-62 melanoma, greater than 100 µM; in the assay with ACHN renal, 98.5 µM; in the assay with SK-OV-3 ovarian, greater than 100 µM. The TGI with SF-268 CNS, in the assay on HCT-15 colon, in the assay with SF-539 CNS, in the assay on IGROV1 ovarian, in the assay on COLO 205 colon and in the assay on SK-MEL-5 melanoma was greater than 100 µM throughout. The TGI in the assay with NCI-H23 lung, in the assay on MDA-MB-231 breast, with SNB-75 CNS, in the assay on SNB-19 CNS, in the assay on MDA-MB-435 and with U251 CNS was greater than 100 µM each time.

Consider `O=CNc1ccccc1OCCOc1ccccc1NC=O`, for which the TGI in the assay on MDA-N, in the assay on RPMI-8226 leukemia, in the assay on OVCAR-8 ovarian, with UACC-62 melanoma, with ACHN renal and in the assay with SK-OV-3 ovarian was greater than 100 µM each time. Moreover, the TGI with SF-268 CNS, in the assay on HCT-15 colon, in the assay on SN12C renal, with SF-539 CNS, in the assay with IGROV1 ovarian and in the assay on COLO 205 colon was greater than 100 µM throughout. In addition, the TGI in the assay with SK-MEL-5 melanoma, in the assay with NCI-H23 lung, with MDA-MB-231 breast, in the assay on SNB-75 CNS, in the assay on SNB-19 CNS and in the assay with MDA-MB-435 was greater than 100 µM in each case. Further, in the assay with U251 CNS, the TGI is greater than 100 µM.

Turning to `O=C(Nc1ccccc1)OCCN=C1c2ccccc2CCc2ccccc21`, the TGI in the assay with MDA-N is 37.2 µM; in the assay on RPMI-8226 leukemia, 36.1 µM; with OVCAR-8 ovarian, greater than 100 µM; with UACC-62 melanoma it was 26.7 µM; in the assay on ACHN renal it was 70.1 µM; with SK-OV-3 ovarian it was 92.3 µM. In addition, the TGI came out at 75.4 µM in the assay with SF-268 CNS; 48.2 µM in the assay on HCT-15 colon; 40.2 µM with SN12C renal; 34.8 µM in the assay on SF-539 CNS; 58.2 µM in the assay with IGROV1 ovarian; 33.1 µM in the assay on COLO 205 colon. Moreover, the TGI was 27.3 µM in the assay on SK-MEL-5 melanoma; greater than 100 µM with NCI-H23 lung; 37.1 µM in the assay on MDA-MB-231 breast; greater than 100 µM in the assay with SNB-75 CNS; 43.7 µM in the assay on SNB-19 CNS; 43.6 µM in the assay with MDA-MB-435. In the assay with U251 CNS, this molecule came in with a TGI of 32.1 µM.

For `COc1cc2cc(C(=O)N3CC(CCl)c4ccc([N+](C)(C)Cc5ccccc5[N+](=O)[O-])cc43)[nH]c2c(OC)c1OC` (stereo not drawn), the TGI with MDA-N is 6.49 µM; with RPMI-8226 leukemia, 5.3 µM; in the assay on OVCAR-8 ovarian it was greater than 25.5 µM; in the assay on UACC-62 melanoma, 2.76 µM; in the assay with ACHN renal, greater than 100 µM; with SK-OV-3 ovarian it was 30.1 µM. Moreover, the TGI with SF-268 CNS was 9.1 µM; in the assay with HCT-15 colon, greater than 100 µM; in the assay with SN12C renal, 26.4 µM; in the assay with SF-539 CNS, 5.38 µM; with IGROV1 ovarian, 17.7 µM; in the assay with COLO 205 colon it was 14.9 µM. In addition, the TGI is 3.3 µM in the assay with SK-MEL-5 melanoma; 4.9 µM in the assay on NCI-H23 lung; greater than 31.9 µM with MDA-MB-231 breast; 24.7 µM in the assay with SNB-75 CNS; 9.76 µM in the assay on SNB-19 CNS; 5.17 µM with MDA-MB-435. In the assay with U251 CNS, this molecule had a TGI of 26.4 µM.

On to `O=C1CSC(c2ccccc2O)N1c1ccc(-n2c(-c3ccccc3)nc3ccccc3c2=O)cc1` (stereo not drawn), for which the TGI in the assay on MDA-N is greater than 100 µM; in the assay on RPMI-8226 leukemia it was greater than 100 µM; with OVCAR-8 ovarian, greater than 100 µM; in the assay on UACC-62 melanoma it was 90.3 µM; in the assay on ACHN renal it was 83.6 µM; in the assay with SK-OV-3 ovarian it was 95.3 µM. The TGI was greater than 100 µM in the assay with SF-268 CNS; 60.1 µM with HCT-15 colon; greater than 100 µM with SN12C renal; 58.9 µM in the assay with SF-539 CNS; 93.9 µM with IGROV1 ovarian; greater than 100 µM in the assay on COLO 205 colon. Further, the TGI in the assay with SK-MEL-5 melanoma is 35.9 µM; in the assay on NCI-H23 lung, greater than 100 µM; in the assay with MDA-MB-231 breast, 37.5 µM; in the assay on SNB-75 CNS it was greater than 100 µM; with SNB-19 CNS, greater than 100 µM; with MDA-MB-435 it was 81.5 µM. This molecule also registered a TGI with U251 CNS greater than 100 µM.

As for `CC(Oc1ccccc1Cl)C(=O)NN1C(=O)CC(=O)N(c2ccc(Cl)cc2)C1=S` (stereo not drawn), the TGI with MDA-N, in the assay on RPMI-8226 leukemia, with OVCAR-8 ovarian, in the assay with UACC-62 melanoma, with ACHN renal and in the assay on SK-OV-3 ovarian was greater than 100 µM each time. The TGI with SF-268 CNS, in the assay on HCT-15 colon, in the assay with SN12C renal, with SF-539 CNS, with IGROV1 ovarian and in the assay on COLO 205 colon was greater than 100 µM each time. Further, the TGI with SK-MEL-5 melanoma, in the assay with NCI-H23 lung, with MDA-MB-231 breast, in the assay with SNB-75 CNS, in the assay with SNB-19 CNS and with MDA-MB-435 was greater than 100 µM each time. Moreover, the TGI in the assay on U251 CNS is greater than 100 µM.
